Data reported in PMC12685177, “Structures of G-protein coupled receptor HCAR3 in complex with selective agonists reveal the basis for ligand recognition and selectivity” (PLOS Biology, 2025).
Where “and” joins values, the source holds several entries; their conditions need not be identical. Equal entries are not always repeated. Where two headings read alike, the source gives them in different places.

Legend:
HCAR2 N86L = experiment: cAMP assay, homology-mutated HCAR2 at residue 86 (N86L); format: cell-based, human
Description: The cAMP levels were quantified using the cAMP-Gi kit from Perkin Elmer (model TRF0263), adhering to the manufacturer’s guidelines. […] After 36 hours, the cells, once rinsed with PBS, were treated with a stimulation buffer,including 500 μM IBMX, and incubated for 30 min in a 384-well plate maintained at 37 °C, with a seeding density of 4,000 cells per well. This step was followed by the addition of 12 μM forskolin to each well, with the incubation continuing for an additional 45 min at the same temperature. Subsequently, each well received 5 μL of the cAMP Eu-cryptate solution and the anti-cAMP-d2 solution, and the mixture was incubated for 1 hour at room temperature [45]. […] The acquired data were analyzed using GraphPad Prism version 9.0, with statistical significance set at p < 0.05. All experimental procedures were replicated three times to ensure accuracy.

wild-type HCAR2 [1] = format: binding, human; parameters: SPR sensorgram response, Acifran-HCAR2: unit not given here
wild-type HCAR2 [2] = molecular target: T1, wild-type HCAR2 (Homo sapiens, UniProt Q8TDS4); format: binding; parameters: SPR sensorgram response, Acifran-HCAR2: unit not given here
T1 construct: expression of the entire length of human HCAR3 and HCAR2 proteins; FLAG (N); 3C protease cleavage site (N); His (C); made in house

HCAR3 = conditions: cited from earlier work; for higher affinity to HCAR3 than to HCAR2: HCAR3 vs HCAR2; for affinity difference to HCAR3 compared to HCAR2: previously reported
HCAR3 R111A = molecular target: T2, HCAR3 R111A (Homo sapiens, UniProt P49019, R111A); experiment: cAMP assay, HCAR3 R111A mutant; format: cell-based; conditions: HCAR3 R111A vs WT
T2 construct: Full-length variants of HCAR3 and HCAR2, including specific point mutations, were incorporated into pcDNA3.1 vectors; FLAG; expressed in transfected cells
Description: Full-length variants of HCAR3 and HCAR2, including specific point mutations, were incorporated into pcDNA3.1 vectors for conducting cAMP assays. The cAMP levels were quantified using the cAMP-Gi kit from Perkin Elmer (model TRF0263), adhering to the manufacturer’s guidelines. […] Cells were transiently transfected with either wild-type or mutant HCAR3 plasmids (at a dosage of 500 ng per well in a 24-well format) using Lipofectamine 3000 (Invitrogen). After 36 hours, the cells, once rinsed with PBS, were treated with a stimulation buffer,including 500 μM IBMX, and incubated for 30 min in a 384-well plate maintained at 37 °C, with a seeding density of 4,000 cells per well. This step was followed by the addition of 12 μM forskolin to each well, with the incubation continuing for an additional 45 min at the same temperature. Subsequently, each well received 5 μL of the cAMP Eu-cryptate solution and the anti-cAMP-d2 solution, and the mixture was incubated for 1 hour at room temperature [45]. Fluorescence readings at 620/665 nm were then gathered using a multimode plate reader (Perkin Elmer EnVision 2105) [46]. The acquired data were analyzed using GraphPad Prism version 9.0, with statistical significance set at p < 0.05. All experimental procedures were replicated three times to ensure accuracy.

wild-type HCAR3 = molecular target: T3, wild-type HCAR3 (Homo sapiens, UniProt P49019); experiment: Surface plasmon resonance measurement (Biacore X100), wild-type HCAR3; format: binding; conditions: 6O, PLA, IBC293, acifran compared
T3 construct: expression of the entire length of human HCAR3 and HCAR2 proteins; FLAG (N); 3C protease cleavage site (N); His (C); made in house
T3 sequence (P49019 whole entry): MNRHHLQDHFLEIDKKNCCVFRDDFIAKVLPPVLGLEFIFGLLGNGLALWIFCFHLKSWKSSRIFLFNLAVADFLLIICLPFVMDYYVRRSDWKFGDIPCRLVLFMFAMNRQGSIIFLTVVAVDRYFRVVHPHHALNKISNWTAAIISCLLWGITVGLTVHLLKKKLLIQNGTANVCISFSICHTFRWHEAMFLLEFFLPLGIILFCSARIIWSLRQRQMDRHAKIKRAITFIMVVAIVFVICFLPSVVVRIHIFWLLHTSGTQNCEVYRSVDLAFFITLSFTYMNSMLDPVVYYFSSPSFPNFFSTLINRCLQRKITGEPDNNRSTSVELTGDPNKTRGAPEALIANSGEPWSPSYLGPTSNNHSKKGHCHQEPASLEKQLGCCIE

T1 sequence (Q8TDS4 whole entry): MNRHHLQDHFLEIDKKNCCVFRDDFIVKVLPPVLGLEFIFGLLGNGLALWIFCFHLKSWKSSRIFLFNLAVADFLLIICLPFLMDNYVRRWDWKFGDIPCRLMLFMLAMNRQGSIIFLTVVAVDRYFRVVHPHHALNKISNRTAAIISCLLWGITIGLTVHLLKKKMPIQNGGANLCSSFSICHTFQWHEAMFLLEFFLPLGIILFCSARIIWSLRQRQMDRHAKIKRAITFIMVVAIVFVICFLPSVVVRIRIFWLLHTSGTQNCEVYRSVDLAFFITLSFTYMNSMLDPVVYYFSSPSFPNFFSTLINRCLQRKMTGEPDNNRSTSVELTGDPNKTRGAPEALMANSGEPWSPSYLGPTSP
T2 sequence (P49019 whole entry R111A): as the sequence (P49019 whole entry) above, with R111A counted along it

Compound: CC1(c2ccccc2)OC(C(=O)O)=CC1=O (stereo not drawn) [Acifran, acifran]
- cAMP response (normalized) (HCAR2 N86L; Acifran-HCAR2 N86L, log[M] -3, Fig. S12E): 51.1208 and 61.7941 and 63.8756
- cAMP response (normalized) (HCAR2 N86L; Acifran-HCAR2 N86L, log[M] -4, Fig. S12E): 60.2042 and 54.7738 and 52.0221
- cAMP response (normalized) (HCAR2 N86L; Acifran-HCAR2 N86L, log[M] -5, Fig. S12E): 64.2273 and 75.5651 and 74.1332
- cAMP response (normalized) (HCAR2 N86L; Acifran-HCAR2 N86L, log[M] -6, Fig. S12E): 84.0136 and 74.6749
- cAMP response (normalized) (HCAR2 N86L; Acifran-HCAR2 N86L, log[M] -7, Fig. S12E): 89.2308 and 93.0182
- cAMP response (normalized) (HCAR2 N86L; Acifran-HCAR2 N86L, log[M] -8, Fig. S12E): 92.6771 and 91.0418
- cAMP response (normalized) (HCAR2 N86L; Acifran-HCAR2 N86L, log[M] -9, Fig. S12E): 100.347 and 91.8401 and 97.0308
- cAMP response (normalized) (HCAR2 N86L; Acifran-HCAR2 N86L, log[M] -10, Fig. S12E): 103.679
- affinity difference acifran-HCAR2 vs acifran-HCAR3 (wild-type HCAR2 [1]): ~ 100 fold
- SPR sensorgram response, Acifran-HCAR2 (wild-type HCAR2 [2]; acifran concentration 0.025 (unit not given), c2 value 159.6 (head printed log[M])): -15.5002
- SPR sensorgram response, Acifran-HCAR2 (wild-type HCAR2 [2]; acifran concentration 0.025 (unit not given), c2 value 160.6 (head printed log[M])): -15.3633
- SPR sensorgram response, Acifran-HCAR2 (wild-type HCAR2 [2]; acifran concentration 0.05 (unit not given), c2 value 159.6 (head printed log[M])): -16.3767
- SPR sensorgram response, Acifran-HCAR2 (wild-type HCAR2 [2]; acifran concentration 0.1 (unit not given), c2 value 159.6 (head printed log[M])): -16.3472
- SPR sensorgram response, Acifran-HCAR2 (wild-type HCAR2 [2]; acifran concentration 0.4 (unit not given), c2 value 159.6 (head printed log[M])): -15.8456

Compound: CC(C)n1nnc2cc(C(=O)O)ccc21 [IBC293, 1-propan-2-ylbenzotriazole-5-carboxylic acid]
- higher affinity to HCAR3 than to HCAR2 (HCAR3): at least 100 fold
- affinity difference to HCAR3 compared to HCAR2 (HCAR3): 100- to 1,000 fold
- effect of R111A mutation on agonist action at HCAR3 (cAMP assay) (HCAR3 R111A): barely interfered HCAR3 activation
- cAMP response (normalized) (HCAR2 N86L; IBC293-HCAR2 N86L, log[M] -3, Fig. S14C): 79.8778 and 75.4919 and 74.9151
- cAMP response (normalized) (HCAR2 N86L; IBC293-HCAR2 N86L, log[M] -4, Fig. S14C): 76.5789 and 72.1623 and 89.1848
- cAMP response (normalized) (HCAR2 N86L; IBC293-HCAR2 N86L, log[M] -5, Fig. S14C): 83.4897 and 75.4819 and 86.0148
- cAMP response (normalized) (HCAR2 N86L; IBC293-HCAR2 N86L, log[M] -6, Fig. S14C): 92.474 and 94.1647 and 90.5718
- cAMP response (normalized) (HCAR2 N86L; IBC293-HCAR2 N86L, log[M] -7, Fig. S14C): 100.025 and 101.905 and 97.6855
- cAMP response (normalized) (HCAR2 N86L; IBC293-HCAR2 N86L, log[M] -8, Fig. S14C): 96.4886 and 103.749 and 98.8962
- cAMP response (normalized) (HCAR2 N86L; IBC293-HCAR2 N86L, log[M] -9, Fig. S14C): 106.585 and 93.0489 and 96.2716
- cAMP response (normalized) (HCAR2 N86L; IBC293-HCAR2 N86L, log[M] -10, Fig. S14C): 101.501 and 101.566 and 98.9795

Compound: O=C(O)c1cc(N(Cc2ccsc2)Cc2ccsc2)n[nH]1 [6O, 3-[bis(thiophen-3-ylmethyl)amino]-1H-pyrazole-5-carboxylic acid]
- efficacy among the four ligands by surface plasmon resonance (wild-type HCAR3): highest efficacy among these four ligands
- higher affinity to HCAR3 than to HCAR2 (HCAR3): at least 100 fold
- affinity difference to HCAR3 compared to HCAR2 (HCAR3): 100- to 1,000 fold
- cAMP response (normalized) (HCAR2 N86L; 6O-HCAR2 N86L, log[M] -3, Fig. S14B): 75.8023 and 73.3702 and 70.1872
- cAMP response (normalized) (HCAR2 N86L; 6O-HCAR2 N86L, log[M] -4, Fig. S14B): 70.0938 and 69.3817 and 72.4279
- cAMP response (normalized) (HCAR2 N86L; 6O-HCAR2 N86L, log[M] -5, Fig. S14B): 77.2869 and 68.2771 and 76.7503
- cAMP response (normalized) (HCAR2 N86L; 6O-HCAR2 N86L, log[M] -6, Fig. S14B): 87.0105 and 88.7719 and 89.0756
- cAMP response (normalized) (HCAR2 N86L; 6O-HCAR2 N86L, log[M] -7, Fig. S14B): 92.1091 and 85.2704 and 84.4838
- cAMP response (normalized) (HCAR2 N86L; 6O-HCAR2 N86L, log[M] -8, Fig. S14B): 95.6219 and 96.9675 and 90.6554
- cAMP response (normalized) (HCAR2 N86L; 6O-HCAR2 N86L, log[M] -9, Fig. S14B): 95.5893 and 94.7012 and 97.44
- cAMP response (normalized) (HCAR2 N86L; 6O-HCAR2 N86L, log[M] -10, Fig. S14B): 99.7701 and 103.601 and 102.183

Compound: O=C(O)C(O)Cc1ccccc1 [PLA, D-phenyllactic acid]
- affinity difference to HCAR3 compared to HCAR2 (HCAR3): 100- to 1,000 fold
- cAMP response (normalized) (HCAR2 N86L; PLA-HCAR2 N86L, log[M] -3, Fig. S14D): 52.7872 and 58.3693 and 59.0285
- cAMP response (normalized) (HCAR2 N86L; PLA-HCAR2 N86L, log[M] -4, Fig. S14D): 77.5234 and 72.7009 and 60.409
- cAMP response (normalized) (HCAR2 N86L; PLA-HCAR2 N86L, log[M] -5, Fig. S14D): 76.3988 and 76.6951 and 70.3605
- cAMP response (normalized) (HCAR2 N86L; PLA-HCAR2 N86L, log[M] -6, Fig. S14D): 100.996 and 89.6375 and 92.8244
- cAMP response (normalized) (HCAR2 N86L; PLA-HCAR2 N86L, log[M] -7, Fig. S14D): 92.0146 and 97.7923 and 90.5493
- cAMP response (normalized) (HCAR2 N86L; PLA-HCAR2 N86L, log[M] -8, Fig. S14D): 94.5951 and 98.3127 and 96.313
- cAMP response (normalized) (HCAR2 N86L; PLA-HCAR2 N86L, log[M] -9, Fig. S14D): 99.4667 and 89.0551 and 95.4388
- cAMP response (normalized) (HCAR2 N86L; PLA-HCAR2 N86L, log[M] -10, Fig. S14D): 94.992 and 94.7429 and 103.357
